Laboratory results from ChEMBL document CHEMBL3745699, “Structural insights into mechanisms for inhibiting amyloid β42 aggregation by non-catechol-type flavonoids” (Bioorg Med Chem, 2016).
The source made the active and inactive calls. The calls are words filed in the database; no cut-off is given here.

Key:
[1] = Drug level treated with kaempferol after 4 hrs by LC/Q Tof-MS/MS analysis; format: physicochemical
[2] = target: Amyloid-beta precursor protein (Homo sapiens) (UniProt P05067); assay: Inhibition of wild type amyloid beta (1 to 42) (unknown origin) aggregation at 50 uM by Thioflavin-T fluorescence assay
Sequence of Amyloid-beta precursor protein (Homo sapiens) (P05067 whole entry): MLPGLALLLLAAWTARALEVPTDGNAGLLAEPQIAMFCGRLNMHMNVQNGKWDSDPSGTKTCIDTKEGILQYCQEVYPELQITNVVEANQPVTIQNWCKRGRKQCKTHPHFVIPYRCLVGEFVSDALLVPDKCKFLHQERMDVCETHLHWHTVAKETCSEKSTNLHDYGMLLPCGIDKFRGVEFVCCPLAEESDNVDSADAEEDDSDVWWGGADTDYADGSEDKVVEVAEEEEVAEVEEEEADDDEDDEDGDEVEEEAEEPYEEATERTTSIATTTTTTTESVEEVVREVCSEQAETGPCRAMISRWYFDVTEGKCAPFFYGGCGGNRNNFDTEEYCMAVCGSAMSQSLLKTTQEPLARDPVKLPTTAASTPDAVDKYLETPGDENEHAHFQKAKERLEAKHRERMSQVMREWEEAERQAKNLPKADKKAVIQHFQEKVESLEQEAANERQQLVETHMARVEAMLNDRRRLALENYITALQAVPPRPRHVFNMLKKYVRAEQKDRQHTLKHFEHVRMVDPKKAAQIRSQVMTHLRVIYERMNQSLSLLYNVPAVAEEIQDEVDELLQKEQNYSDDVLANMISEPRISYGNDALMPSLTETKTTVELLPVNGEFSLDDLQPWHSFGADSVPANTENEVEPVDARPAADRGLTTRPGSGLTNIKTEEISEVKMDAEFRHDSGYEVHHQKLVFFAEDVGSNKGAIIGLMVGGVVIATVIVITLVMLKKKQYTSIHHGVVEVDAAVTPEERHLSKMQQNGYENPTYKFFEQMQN

[3] = target: Amyloid-beta precursor protein (Homo sapiens) (UniProt P05067); assay: Inhibition of nucleation phase of HFIP-treated 15N-labelled wild type Amyloid beta (1 to 42) (unknown origin) assessed as time required for nucleation at 50 uM by Thioflavin-T fluorescence assay in presence of fibril seed
[4] = target: Amyloid-beta precursor protein (Homo sapiens) (UniProt P05067); conditions: 500 uM
Description: Inhibition of elongation phase of HFIP-treated 15N-labelled wild type Amyloid beta (1 to 42) (unknown origin) at 500 uM by Thioflavin-T fluorescence assay in presence of fibril seed

[5] = Drug degradation assessed as autoxidation at 50 uM under argon atmosphere at 37 degC after 2 to 48 hrs by UV-visible spectrophotometric analysis in presence of wild type Amyloid beta (1 to 42) (unknown origin); format: physicochemical
[6] = Drug degradation assessed as autoxidation at 500 uM at 4 degC after 1 hr by UV-visible spectrophotometric analysis in presence of wild type Amyloid beta (1 to 42) (unknown origin) relative to morin and datiscetin; format: physicochemical; conditions: read-out: Drug degradation
[7] = Drug metabolism assessed as 2,4,6-trihydroxybenzaldehyde formation after 4 hrs by LC/Q Tof-MS/MS analysis; format: physicochemical
[8] = Drug degradation assessed as autoxidation at 50 uM at 37 degC after 2 to 48 hrs by UV-visible spectrophotometric analysis in presence of wild type Amyloid beta (1 to 42) (unknown origin); format: physicochemical
[9] = target: Amyloid-beta precursor protein (Homo sapiens) (UniProt P05067); assay: Inhibition of wild type Amyloid beta (1 to 42) (unknown origin) aggregation at 50 uM under ambient condition by Thioflavin-T fluorescence assay
[10] = target: Amyloid-beta precursor protein (Homo sapiens) (UniProt P05067); assay: Inhibition of wild type Amyloid beta (1 to 42) (unknown origin) aggregation at 50 to 100 uM under anaerobic condition after 5 days by Thioflavin-T fluorescence assay
[11] = Drug degradation after 48 hrs by HPLC analysis; format: physicochemical; conditions: read-out: Drug degradation
[12] = Stability of the compound assessed as compound remaining after 48 hrs by HPLC analysis; format: physicochemical; conditions: read-out: Stability
[13] = target: Amyloid-beta precursor protein (Homo sapiens) (UniProt P05067); assay: Inhibition of elongation phase of HFIP-treated 15N-labelled wild type Amyloid beta (1 to 42) (unknown origin) at 50 uM by Thioflavin-T fluorescence assay in presence of fibril seed
[14] = target: Amyloid-beta precursor protein (Homo sapiens) (UniProt P05067); assay: Inhibition of Amyloid beta (1 to 42) 13,14 A2 mutant (unknown origin) aggregation at 50 uM by Thioflavin-T fluorescence assay
[15] = Drug degradation assessed as autoxidation at 500 uM at 4 degC after 4 hrs by UV-visible spectrophotometric analysis in presence of wild type Amyloid beta (1 to 42) (unknown origin); format: physicochemical
[16] = target: Amyloid-beta precursor protein (Homo sapiens) (UniProt P05067); conditions: 50 uM
Description: Inhibition of wild type Amyloid beta (1 to 42) (unknown origin) aggregation at 50 uM after 48 hrs by TEM analysis

| SMILES | Drug metabolism [1] | inhibition [2] | TIME [3] | also measured |
| --- | --- | --- | --- | --- |
| O=C(O)c1ccc(O)cc1 [PARABEN] | metabolite_detected | Active | 3 h | – |
| O=C(O)C(=O)c1c(O)cc(O)cc1O | metabolite_detected | Active | 3 h | – |
| O=c1c(O)c(-c2ccc(O)cc2O)oc2cc(O)cc(O)c12 [MORIN] | – | – | 10 h | remaining at 48 h [12]: > 80%; inhibition [13]: Active; Stability [5]: Stable; inhibition [9]: Active; inhibition [10]: Active; inhibition [14]: Active; Stability [15]: Stable |
| O=Cc1c(O)cc(O)cc1O [PHLOROGLUCINALDEHYDE] | metabolite_detected | Active | 3 h | – |
| O=C(O)C(=O)c1ccc(O)cc1 | metabolite_detected | Active | 3 h | – |
| O=c1c(OOc2c(-c3ccc(O)cc3)oc3cc(O)cc(O)c3c2=O)c(-c2ccc(O)cc2)oc2cc(O)cc(O)c12 | metabolite_detected | Active | 3 h | – |
| O=C1C(=O)C(O)(c2ccc(O)cc2)Oc2cc(O)cc(O)c21 (stereo not drawn) | metabolite_detected | Active | 3 h | – |

Second part, led by results:

| Drug metabolism [1] | inhibition [2] | TIME [3] | SMILES | also measured |
| --- | --- | --- | --- | --- |
| metabolite_detected | Active | 3 h | O=C1Oc2cc(O)cc(O)c2C1=O | – |
| – | – | 3 h | O=c1c(O)c(-c2ccc(O)cc2)oc2cc(O)cc(O)c12 [KAEMPFEROL] | inhibition [4]: Active; Stability [5]: Stable; degraded at 1 h, 500 µM [6]: 70%; Drug metabolism [7]: metabolite_detected; Stability [8]: Unstable; inhibition [9]: Active; inhibition [10]: Active; degraded at 48 h [11]: > 80% |
| metabolite_detected | Active | 3 h | O=C(O)c1c(O)cc(O)cc1O | – |
| – | – | 6 h | O=c1c(O)c(-c2ccccc2O)oc2cc(O)cc(O)c12 [DATISCETIN] | remaining at 48 h [12]: > 80%; inhibition [13]: Active; inhibition [16]: Active; Stability [5]: Stable; inhibition [9]: Active; inhibition [10]: Active; inhibition [14]: Active; Stability [15]: Stable |
| metabolite_detected | Active | 3 h | O=c1cc(-c2ccc(O)cc2)oc2cc(O)cc(O)c12 [APIGENIN] | – |
